Assay results published in patent US20110236431A1, “TREATMENT OF ACUTE MYOCARDIAL INFARCTION (AMI) USING ENCAPSULATED CELLS ENCODING AND SECRETING GLP-1 PEPTIDES OR ANALOGS THEREOF” (BIOCOMPATIBLES UK LTD., priority 2008, published 2011).
Entries after “also recorded” stand apart in the source; their conditions may differ.

Columns and labels:
[1] = system: patients with AMI and severe systolic dysfunction; details: GLP-1 infusion added to standard therapy; cited from earlier work
[2] = system: Rin-5F cells; assay: Anti-apoptotic efficacy, cycloheximid-induced apoptosis; format: cell-based, rat; details: 24 hours
Description: 40.000 Rin-5F cells were seeded per 96 well and cultivated for 2 days in RPMI supplemented with 1% L-Glutamin and 10% fetal calf serum. […] After 24 hours cell viability is quantified using AlamarBlue.

[3] = target: DPP-IV (Homo sapiens, UniProt P27487); assay: In vitro plasma stability of GLP-1 peptides secreted from human cells; details: cell culture supernatant, human lymphocyte enriched plasma, 37° C., 3 or additionally 6 and 9 hours
DPP-IV, sequence (P27487 whole entry): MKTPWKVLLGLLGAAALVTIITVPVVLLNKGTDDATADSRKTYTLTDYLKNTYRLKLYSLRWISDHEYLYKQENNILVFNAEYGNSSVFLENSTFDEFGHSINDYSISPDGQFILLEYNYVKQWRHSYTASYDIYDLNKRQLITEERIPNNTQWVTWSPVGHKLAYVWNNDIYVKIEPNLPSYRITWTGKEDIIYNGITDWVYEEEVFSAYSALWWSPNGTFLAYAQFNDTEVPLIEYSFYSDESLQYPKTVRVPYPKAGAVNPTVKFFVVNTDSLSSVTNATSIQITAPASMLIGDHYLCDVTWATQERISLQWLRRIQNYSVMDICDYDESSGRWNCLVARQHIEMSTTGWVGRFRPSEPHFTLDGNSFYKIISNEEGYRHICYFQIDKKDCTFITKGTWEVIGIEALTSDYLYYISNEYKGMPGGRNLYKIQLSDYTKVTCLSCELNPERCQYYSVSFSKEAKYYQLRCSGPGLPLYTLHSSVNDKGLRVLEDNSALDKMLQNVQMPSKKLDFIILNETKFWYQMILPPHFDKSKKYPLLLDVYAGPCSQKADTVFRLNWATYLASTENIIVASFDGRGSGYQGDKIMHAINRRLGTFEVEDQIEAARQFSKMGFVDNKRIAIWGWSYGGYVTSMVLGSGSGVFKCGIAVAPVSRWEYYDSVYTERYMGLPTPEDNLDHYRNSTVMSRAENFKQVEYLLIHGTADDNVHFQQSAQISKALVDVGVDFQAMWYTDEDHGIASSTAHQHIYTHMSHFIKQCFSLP

Glucagon Like Peptide-1 (HAEGTFTSDVSSYLEGQAAKEFIAWLVKGRG) [GLP-1, naturally occurring incretin, infused in literature studies]
regional and global LV function [1]: improved regional and global LV function

GLP-1(7-37)-IP2-GLP-1(7-37) [CM1]
cell viability ([2]; CHX 10 μg/ml and 100 μg/ml, different concentrations of CM1): significant (p<0.01) increase of cell viability | anti-apoptotic effect (cell viability, AlamarBlue) ([2]; cycloheximid, serum-free, 1 nM CM1, p<0.01): significant anti-apoptotic effect

GLP1(7-37)-IP2-GLP1(7-37) [construct #217]
stability to DPP-IV degradation in plasma (active GLP-1 ELISA) [3]: more resistant to degradation; also recorded: nearly fully stabilized to DPP-IV degradation

GLP-1(7-37)-IP2-extended with 11 AA [construct #317]
stability to DPP-IV degradation in plasma (active GLP-1 ELISA) [3]: more resistant to degradation
